Laboratory results reported in patent US20040091477A1, “Immunosuppresive compositions” (priority 2003, published 2004).
Where two headings read alike, the source gives them in different places.

Tests used:
[1] = tested on: IL-4; assay: IL-4 expression by PMA/IOM-stimulated PBMC from asthma patients, ELISA; assay type: cell-based, human
Method: (§1) Venous blood was collected in polyethylene tubes containing EDTA between 9 and 10 a.m. PBMC were separated by Ficoll-paque (Pharmacia, Uppsala, Sweden) density gradient centrifugation. Cells were washed and suspended in AIM-V medium (Gibco BRL, Gaithersburg, Md.) at density of 2×10^6 cells/ml. PBMC were stimulated with 20 nM phorbol 12-myristate 13-acetate (PMA) and 1 μM ionomycin (IOM) (ICN Pharmaceuticals, Inc. CA, USA). The cells were harvested 24 hours later and supernatants were frozen at −70° C. until use. […] For BN52021, a range between 1×10^−9 and 1×10^−4 M was used.
(§2) Cytokine expression (IL-4 and IL5) was evaluated in culture supernatants by enzyme-linked immunoabsorption assay (Amersham North America, Illinois, USA). The detection range was 10-400 pg/ml and 7.8-500 pg/ml respectively. Colorimetric changes proportional to supernatant cytokine concentration were measured using a model 2550 EIA reader (Bio-Rad Laboratories, Hercules Calif. USA). All assays were performed in duplicate.
(§3) The data shown Table 2 was obtained using cultures of 2×10^6 human PBMC, which were isolated from venous blood and stimulated 24 hours with media, 20 nM PMA+1.0 μM ionomycin (PMA/I), 1.0 μM cyclosporine A+PMA/IOM, or 1 μM ginkgolide BN52021+PMA. Expression of interleukins 4 and 5 were measured in PBMC culture supernatents by antibody capture ELISA. […]

[2] = tested on: IL-5; assay: IL-5 expression by PMA/IOM-stimulated PBMC from asthma patients, ELISA; assay type: cell-based, human
Method: as §1, §2, §3

[3] = tested on: CD25; assay: CD25 expression by PMA/IOM-stimulated PBMC from asthma patients, flow cytometry; assay type: cell-based, human
Method: as §1
(§4) Two-color flow cytometry was conducted using a Coulter Epics Profile II flow cytometer (Coulter Scientific, Hialeah, Fla., USA). Isotypic controls for the monoclonal antibodies (mAb) used to detect antigens of interest were established for each cell preparation. Positive analysis regions for cells expressing specific surface antigens were set against isotypic controls and specific binding of fluorophore-conjugated mAb was analyzed by cytofluorography according to standard methods. Lymphocyte subpopulations were identified by position on forward and side scatter plots and live-gated. Isotype matched antibodies were utilized to control for nonspecific fluorescence. […] Background values for antibodies used in assays were based on fluorescence of non-specific antibodies. […]

[4] = tested on: CD45RA; assay: CD45RA expression by PMA/IOM-stimulated PBMC from asthma patients, flow cytometry; assay type: cell-based, human
Method: as §1, §4

[5] = tested on: CD54; assay: CD54 expression by PMA/IOM-stimulated PBMC from asthma patients, flow cytometry; assay type: cell-based, human
Method: as §1, §4

[6] = tested on: HLA-DR; assay: HLA-DR expression by PMA/IOM-stimulated PBMC from asthma patients, flow cytometry; assay type: cell-based, human
Method: as §1, §4

[7] = tested on: lymphocyte activation markers; assay: Dose range of BN52021 on lymphocyte activation markers in PBMC from asthma patients; assay type: cell-based, human; settings: 1×10^−5 and 1×10^−7 M, 3 of the patients tested
Method: as §1, §4

[8] = target: platelet activating factor receptor (PAFR) (Homo sapiens, UniProt P25105); settings: cited from earlier work
Chain of platelet activating factor receptor (PAFR) (P25105 whole entry, species assumed): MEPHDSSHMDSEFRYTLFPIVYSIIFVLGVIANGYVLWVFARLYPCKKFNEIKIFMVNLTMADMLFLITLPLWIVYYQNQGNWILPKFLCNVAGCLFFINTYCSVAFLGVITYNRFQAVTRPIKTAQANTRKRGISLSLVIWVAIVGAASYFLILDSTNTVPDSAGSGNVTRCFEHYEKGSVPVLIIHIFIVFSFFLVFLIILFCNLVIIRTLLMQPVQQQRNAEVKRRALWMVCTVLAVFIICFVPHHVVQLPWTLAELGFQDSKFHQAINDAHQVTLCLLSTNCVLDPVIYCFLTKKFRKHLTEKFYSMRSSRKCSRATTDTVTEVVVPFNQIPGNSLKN

[9] = tested on: cAMP-specific phosphodiesterase; settings: cited from earlier work
[10] = 1 μM, PMA/IOM-stimulated cultures
[11] = PMA + IOM + 1 μM compound, 24 hours, ±SE

## C[C@@H]1C(=O)O[C@H]2[C@@H](O)[C@@]34[C@H]5C[C@@H](C(C)(C)C)[C@]36[C@@H](OC(=O)[C@@H]6O)O[C@@]4(C(=O)O5)[C@@]12O [BN52021, Ginkgolide B]
[1]; [10]
  effect on IL-4 expression (in words): no statistically significant effect
[1]; [11]
  IL-4 in culture supernatant: 81.7 ± 28.1 pg/mL
[2]; [10]
  effect on IL-5 expression (in words): no statistically significant effect
[2]; [11]
  IL-5 in culture supernatant: 374 ± 105 pg/mL
[3]; [10]
  effect on CD25 expression (in words): unaffected
[3]; [11]
  % CD25: 7.1 ± 2.0%
[4]; [10]
  effect on CD45RA expression (in words): decreased significantly
[4]; [11]
  % CD45RA: 48.8 ± 9.5 %
[5]; [10]
  effect on CD54 expression (in words): unaffected
[5]; [11]
  % CD54: 27.4 ± 6.9%
[6]; [10]
  effect on HLA-DR expression (in words): a trend towards the reduction
[6]; [11]
  % HLA-DR: 21.2 ± 5.3¶ %
[7]
  change in lymphocyte activation markers (in words): No change occurred in lymphocyte activation markers
[8]
  PAFR antagonist activity (in words): PAFR antagonist activity
[8]; listed as Ginkgolide B
  PAFR antagonist activity (in words): PAFR antagonist
[9]
  cAMP phosphodiesterase inhibitory activity (in words): does not possess cAMP phophodiesterase activity
